Data: ChEMBL document CHEMBL3507680, “University of Dundee, Gates Library screen for HepG2 cell viability”

Assay: Human HepG2 cell viability assay in 384 well format
Type: toxicity, cell-based
Set-up: dose 125 nL, time 70.5 hour; concentration not given beside the values
Conditions: HepG2 cells, read-out: Inhibition

Row | SMILES | cytotoxicity at 70.5 h [%]
1 | CCn1cnc2c(c(Br)nn2C)c1=O | -17.1
2 | Cc1c(Cl)cccc1OCC(=O)NC1(C#N)CCSC1 (stereo not drawn) | -10.3
3 | Cn1nc(Br)c2c(=O)n(CCc3ccccc3)cnc21 | -8.29
4 | N#CC1(NC(=O)COc2cc(Cl)cc(Cl)c2)CCSC1 (stereo not drawn) | -14.6
5 | N#CC1(NC(=O)COc2cc(Cl)cc(Cl)c2)CCOCC1 | -5.72
6 | CN1CCN(c2ccc(NCc3ccc(OC(F)(F)F)cc3)cn2)CC1 | -11.2
7 | CN(C)Cc1nc(C(C)(C)NC(=O)c2ccc3ccccc3c2)no1 | -6.87
8 | N#Cc1cc(F)ccc1NCC1CCS(=O)(=O)CC1 | -1.39
9 | O=C(CC1CCN(CCN2CCCCC2)CC1)N1CCOCC1 | -9.66
10 | Cc1sc(NC(=O)CN2CCCC(c3ncc[nH]3)C2)c(C)c1C (stereo not drawn) | -14.9
11 | O=C(CN1CCCC(c2ncc[nH]2)C1)NCC(F)(F)F (stereo not drawn) | 18.7
12 | COc1ccc(CN(C(=O)C2CCCS2)c2ccncc2)cc1 (stereo not drawn) | -8.12
13 | COc1ccc(CN(C(=O)C2CCOCC2)c2ccncc2)cc1 | -10.6
14 | CC(C)(C)CC1CCCN1Cc1nc(-c2ccco2)no1 (stereo not drawn) | 18
15 | Cn1cnnc1CNC(=O)CCCOc1ccccc1Cl | -14.3
16 | CN(CCc1nc(-c2cccc(Cl)c2)no1)CCn1cccn1 | -5.46
17 | CN(C)Cc1nc(C(C)(C)NC(=O)c2nc3ccccc3s2)no1 | -7.47
18 | CNS(=O)(=O)CCCNC(C)(C)c1nc(C)cs1 | -1.16
19 | COc1ncccc1CNc1snc(Cl)c1C#N | -103
20 | O=C(CNc1cc(-n2cnnn2)ccc1F)Nc1cc(F)ccc1F | -96.7
21 | CNC(=O)Cn1cc(Nc2cccc(F)c2C#N)cn1 | -32.8
22 | Cc1nc(-c2ccco2)ccc1C(=O)NCC(=O)N1CCCCC1 | -117
23 | Cc1cccc(CSc2nnc(C)n2CC(N)=O)c1 | -91.2
24 | COC(=O)C1=NN2C(=NS(=O)(=O)c3ccccc32)N1 | -89.7

Row | SMILES | cytotoxicity at 70.5 h [%]
25 | COc1cc(CSc2nnc(C)n2CC(N)=O)ccc1SC | -118
26 | O=C(O)c1cc(S(=O)(=O)Nc2cccc3c2OCCO3)c(Cl)cc1F | -124
27 | CCOCCc1nc(-c2cnn3c(C)cc(C)nc23)no1 | -107
28 | CCS(=O)(=O)Cc1nc(-c2cnn3c(C)cc(C)nc23)no1 | -116
29 | COCc1nc(C(=O)OCC2CCN(c3ccccc3)C2)cs1 (stereo not drawn) | -88.7
30 | NC(=O)C1CN(c2ccc(Br)cn2)CCO1 (stereo not drawn) | -26.8
31 | Cc1ccc(C(=O)N2CCC3(CCCC3)CC2)c(=O)[nH]1 | -99.3
32 | O=C(Cc1cccs1)NS(=O)(=O)c1cccc2cnccc12 | -116
33 | CCS(=O)(=O)N1CCC(Nc2c(Cl)cccc2C#N)CC1 | -90.6
34 | CC(NC(=O)c1cccs1)(C(N)=O)c1cccc(C(F)(F)F)c1 (stereo not drawn) | -101
35 | CCn1c(C)cc(C(=O)N2CCC(Nc3cccnn3)CC2)c1C | -108
36 | CN(Cc1ccccc1)C(=O)CCS(=O)(=O)c1ccc2c(c1)OCCO2 | -62.4
37 | O=C(NCCC(=O)N1CCCC1)C(OC1CCCC1)c1ccccc1 (stereo not drawn) | 34.3
38 | CCN(CCO)C(=O)Nc1ccc(OCCOC)nc1 | 2.78
39 | CCCn1[nH]cc/c1=N\C(=O)CN1CCC[C@H]1CO | 2.76
40 | CC(NC(=O)c1cccc(CN2CCN(C)CC2)c1)c1ccccn1 (stereo not drawn) | 0.178
41 | CCOc1ncccc1CNC(=O)c1csc(Br)c1 | -8.48
42 | CN(C)c1ncccc1CNC(=O)c1csc(Br)c1 | 13.3
43 | O=C1CCN(C(=O)C2(c3ccc(Br)cc3)CC2)CCN1 | 1.42
44 | CC(NC(=O)NCc1cccc(CN2CCCC2)c1)c1nccs1 (stereo not drawn) | -5.42
45 | CN(CC(=O)NC(c1ccc(F)cc1)C(F)(F)F)S(C)(=O)=O (stereo not drawn) | -0.794
46 | CN(Cc1cc(Br)cn1C)C(=O)c1ccsc1 | -7.08
47 | COc1ncccc1CNC(=O)c1c[nH]c(=O)c(Br)c1 | -4.91
48 | CC1(C)CC1C(=O)NS(=O)(=O)Cc1cc(-c2ccccc2)no1 (stereo not drawn) | -1.85

Row | SMILES | cytotoxicity at 70.5 h [%]
49 | Cc1noc(NCc2ccc(F)cc2F)n1 | 21.8
50 | CN(CCC#N)C(=O)CN1CCCC1c1cccs1 (stereo not drawn) | -4.47
51 | O=C(NCCN1CCOCC1)C(OC1CCCC1)c1ccccc1 (stereo not drawn) | -3.19
52 | CN(Cc1ccco1)C(=O)CN1CCCC1c1cccs1 (stereo not drawn) | 24.6
53 | Cc1nc(CNC2CCc3nc(C(C)C)nn3C2)oc1C (stereo not drawn) | -4.84
54 | CCc1nnc(C2Cc3ccccc3CN2Cc2cc(C)on2)o1 (stereo not drawn) | -2.94
55 | O=C(Nc1cccs1)N(CCO)CCOCC(F)(F)F | 6.76
56 | CCN(CC)c1ccc(CNC(=O)c2cccc(C)n2)cn1 | 11.5
57 | CS(=O)(=O)N1CCC(C(=O)N2CCN(Cc3cccc(Cl)c3)CC2)CC1 | -8.76
58 | CC1(C)COCCN1C(=O)Cc1csc(Cc2ccccn2)n1 | -7.18
59 | CN1CCC(C(=O)N2CCN(Cc3cccc(Cl)c3)CC2)CC1=O (stereo not drawn) | 3.2
60 | CCN(CC)c1ccc(CNC(=O)c2ccccn2)cn1 | 10.8
61 | COc1ccccc1CC1CCN(C(=O)CCN2CCOC2=O)CC1 | 2.48
62 | Cc1ccccc1C1(CNC(=O)N2CCC(CC(N)=O)CC2)CC1 | -4.35
63 | O=C(Cc1cccs1)NCc1ccnc(OC2CCOCC2)c1 | -6.12
64 | Cc1c(NC(C)C(C)C)cccc1C(=O)NCc1cnn(C)c1 (stereo not drawn) | -2.68
65 | Cc1ccc(CNC(=O)C2CCN(C(=O)c3ccccc3)CC2)n1C | -8.06
66 | NC(=O)N1CCCC1COC(=O)c1cc(F)ccc1F (stereo not drawn) | -1.3
67 | NC(=O)N1CCCC1COC(=O)c1ccc(F)cc1Br (stereo not drawn) | 12.5
68 | CCOc1cc(F)ccc1NC(=O)N(C(C)CS(C)(=O)=O)C1CC1 (stereo not drawn) | -4.36
69 | CC(CS(C)(=O)=O)N(C(=O)Nc1ccc(F)cc1F)C1CC1 (stereo not drawn) | -1.48
70 | Cc1noc(-c2cccnc2N2CCOC(C)(c3cnn(C)c3)C2)n1 (stereo not drawn) | -6.06
71 | CNC(=O)CC1CCN(C(=O)NCC2(c3ccccc3F)CC2)CC1 | -3.18
72 | COCCOCCCC(=O)N1CCC(Cc2ccccc2OC)CC1 | -10.9

Row | SMILES | cytotoxicity at 70.5 h [%]
73 | Cc1nc(C)c(C(=O)N(C)Cc2cnn(C)c2)s1 | 1.01
74 | Cc1ccccc1C1CCN(C(=O)CCNS(C)(=O)=O)C1 (stereo not drawn) | 20.6
75 | COCCNC(=O)c1cc(OC)ccc1Br | 0.394
76 | Cc1nn(C)c(C)c1CC(=O)NCc1cccnc1N1CCOCC1 | -5.49
77 | Cc1nn(C)c(Cl)c1C(=O)NCc1cccnc1N1CCOCC1 | -11.8
78 | Cc1nc(CCNC(=O)NC2CCCN(c3ncccn3)C2)cs1 (stereo not drawn) | 23.9
79 | CS(=O)(=O)NCC1CCCN(C(=O)Nc2ccccc2N2CCCC2)C1 (stereo not drawn) | -1.87
80 | CNS(=O)(=O)c1ccc(CCC(=O)NCc2cccc(OC)c2)cc1 | -0.152
81 | CN(Cc1cnn(C)c1)C(=O)c1ccc(=O)n(Cc2ccccc2)n1 | 27.5
82 | COC(=O)C(C)(C)NC(=O)C1CC(=O)N(CC(F)(F)F)C1 (stereo not drawn) | 0.904
83 | Cc1nnc2n1CCN(C(=O)c1ccn(-c3cccc(F)c3)n1)C2 | 5.14
84 | CCc1nnc2n1CCN(C(=O)c1cn(-c3ccccc3)nn1)C2 | 3.13
85 | Cc1nnc2n1CCN(C(=O)c1cn(-c3ccc(F)cc3)nn1)C2 | -0.105
86 | Cc1cc(NC(=O)N2CCOC(C(N)=O)C2)ccc1Br (stereo not drawn) | -12.3
87 | O=C(Nc1cccc(CN2CCC(CO)CC2)c1)c1cc(Cl)c[nH]1 | 32.7
88 | N#CCSCCCN1CCN(C(=O)c2ccccc2F)CC1 | -12.3
89 | CN(Cc1ccco1)C(=O)C1=NN(C)C(=O)CC1 | -3.82
90 | Cc1cccc(C(=O)N2CCCN(CCCSCC#N)CC2)c1 | -10.7
91 | CCCn1nc(C(=O)N(C)Cc2cnn(C)c2)ccc1=O | 0.0623
92 | Cc1ccc(N(Cc2ccco2)C(=O)CC2=NN(C)C(=O)C2)cc1 | -9.83
93 | COc1c(CNCc2cccnc2N2CCN(C)CC2)c(C)nn1C | 4
94 | CN(Cc1cccc(C#N)c1)S(=O)(=O)N1CCOCC1 | -9.82
95 | Cc1ccc(CNC(=O)NC2CCCN(c3ncccn3)C2)cn1 (stereo not drawn) | -10
96 | COc1ccc(CNC(=O)c2ccc(Cl)cc2F)cc1C(=O)O | -4.39

Row | SMILES | cytotoxicity at 70.5 h [%]
97 | Cc1ccc(OCCC(=O)N(C)CCC#N)cc1C | -7.6
98 | Cc1nn(CC(=O)N2CCN(Cc3cccnc3)CC2)c(C)c1Cl | -10.2
99 | Cc1cccc(OCCC(=O)N(C)CC(C)C#N)c1C (stereo not drawn) | 19.7
100 | COCCn1ccc(NC(=O)Nc2ccncc2)n1 | -3.96
101 | CCN(C(=O)Cc1ccc(NC(=O)NC2CC2)cc1)c1ccccc1 | -3.6
102 | CCc1cccc(C)c1NC(=O)C1CC(=O)N(Cc2ccccn2)C1 (stereo not drawn) | -3.75
103 | Cc1noc(C(C)C)c1C(=O)NS(=O)(=O)c1cccnc1 | 17.5
104 | COCCN(C)C(=O)Nc1ccc2c(ccn2CC(=O)N(C)C)c1 | -3.43
105 | Cc1nc(CC(=O)N2CCN(c3ccc(N(C)C)cc3)CC2)cs1 | 4.33
106 | CCc1nccn1C1CCCN(C(=O)c2ccc(C(N)=O)cn2)C1 (stereo not drawn) | -9.53
107 | CC(NC(=O)c1ccc(=O)n(C)c1)c1ccc(OCC2CC2)c(F)c1 (stereo not drawn) | -11.1
108 | CCc1nccn1C1CCCN(C(=O)c2ccnc(N(C)C)c2)C1 (stereo not drawn) | -7.75
109 | CCc1csc(C2CCCN(C(=O)c3ccncc3)C2)n1 (stereo not drawn) | -5.33
110 | O=C(CN1CCCC1CC(=O)c1ccccc1)NCc1ccccn1 (stereo not drawn) | 4.93
111 | CSc1ccc(C(CNC(C)=O)N2CCc3sccc3C2)cc1 (stereo not drawn) | -12.8
112 | CCC(C)C(=O)NCCCn1nc(C)cc1C (stereo not drawn) | -13.2
113 | CCOc1cccc(C(=O)NCCC(=O)NCc2ccncc2)c1 | 23
114 | Cc1noc(C(C)N2CCN(c3ccc(C#N)cn3)CC2)n1 (stereo not drawn) | -10.1
115 | CC(C)c1noc(C(C)N2CCN(c3ccc(C#N)cn3)CC2)n1 (stereo not drawn) | -15.5
116 | CN(Cc1nccn1CC(F)(F)F)C(=O)c1cccc(N(C)C)c1 | 0.768
117 | CN(Cc1nccn1CC(F)(F)F)C(=O)c1ccc2c(c1)OCO2 | -11
118 | Cc1nn(C)c(Cl)c1CNCc1cccnc1N1CCCCC1 | -2.26
